According to ChEMBL document CHEMBL4507289, “Data for DCP probe GSM1” (2021):

Key:
[1] = target: Ribosomal protein S6 kinase beta-1 (Homo sapiens) (UniProt P23443); details: Compound concentration 1000.0 nM
[2] = target: Dual specificity mitogen-activated protein kinase kinase 4 (Homo sapiens) (UniProt P45985); details: Compound concentration 1000.0 nM
[3] = target: Dual specificity mitogen-activated protein kinase kinase 7 (Homo sapiens) (UniProt O14733); details: Compound concentration 1000.0 nM
[4] = target: Alpha-2A adrenergic receptor (Homo sapiens) (UniProt P08913); details: Compound concentration 10.0 uM
[5] = target: Myosin-IIIb (Homo sapiens) (UniProt Q8WXR4); details: Compound concentration 1000.0 nM
[6] = target: Serine/threonine-protein kinase PAK 4 (Homo sapiens) (UniProt O96013); details: Compound concentration 1000.0 nM
[7] = target: Muscle, skeletal receptor tyrosine-protein kinase (Homo sapiens) (UniProt O15146); details: Compound concentration 1000.0 nM
[8] = target: Serine/threonine-protein kinase 3 (Homo sapiens) (UniProt Q13188); details: Compound concentration 1000.0 nM
[9] = target: Serine/threonine-protein kinase Nek3 (Homo sapiens) (UniProt P51956); details: Compound concentration 1000.0 nM
[10] = target: Histamine H3 receptor (Homo sapiens) (UniProt Q9Y5N1); details: Compound concentration 10.0 uM
[11] = target: Serine/threonine-protein kinase DCLK3 (Homo sapiens) (UniProt Q9C098); details: Compound concentration 1000.0 nM
Chain of Serine/threonine-protein kinase DCLK3 (Homo sapiens) (Q9C098 whole entry): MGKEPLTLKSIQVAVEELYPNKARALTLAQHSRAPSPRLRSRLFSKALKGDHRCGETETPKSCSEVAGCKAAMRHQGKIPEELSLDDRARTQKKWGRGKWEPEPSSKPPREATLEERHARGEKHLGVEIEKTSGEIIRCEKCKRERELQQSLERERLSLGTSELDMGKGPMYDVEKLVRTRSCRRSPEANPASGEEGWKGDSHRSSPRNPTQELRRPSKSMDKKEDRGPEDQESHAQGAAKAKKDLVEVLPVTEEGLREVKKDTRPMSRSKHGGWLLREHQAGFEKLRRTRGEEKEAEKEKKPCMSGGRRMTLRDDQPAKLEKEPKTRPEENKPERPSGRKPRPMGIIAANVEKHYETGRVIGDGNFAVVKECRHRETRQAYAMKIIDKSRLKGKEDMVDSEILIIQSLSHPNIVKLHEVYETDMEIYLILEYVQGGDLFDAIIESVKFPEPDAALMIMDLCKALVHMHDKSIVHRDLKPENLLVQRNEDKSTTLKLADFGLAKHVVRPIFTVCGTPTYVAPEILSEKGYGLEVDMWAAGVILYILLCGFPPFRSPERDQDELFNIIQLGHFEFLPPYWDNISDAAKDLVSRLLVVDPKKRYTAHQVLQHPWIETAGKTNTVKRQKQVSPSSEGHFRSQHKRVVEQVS

[12] = tested on: Epidermal growth factor receptor (Homo sapiens), P00533 [UNDEFINED MUTATION]; details: Compound concentration 1000.0 nM
[13] = target: Serine/threonine-protein kinase MRCK beta (Homo sapiens) (UniProt Q9Y5S2); details: Compound concentration 1000.0 nM
[14] = target: Mitotic checkpoint serine/threonine-protein kinase BUB1 (Homo sapiens) (UniProt O43683); details: Compound concentration 1000.0 nM
[15] = tested on: Receptor-type tyrosine-protein kinase FLT3 (Homo sapiens), P36888 [N841I]; details: Compound concentration 1000.0 nM
[16] = target: Vascular endothelial growth factor receptor 2 (Homo sapiens) (UniProt P35968); details: Compound concentration 1000.0 nM
[17] = target: Serine/threonine-protein kinase haspin (Homo sapiens) (UniProt Q8TF76); details: Compound concentration 1000.0 nM
[18] = target: Serine/threonine-protein kinase Nek5 (Homo sapiens) (UniProt Q6P3R8); details: Compound concentration 1000.0 nM
[19] = target: Tyrosine-protein kinase Yes (Homo sapiens) (UniProt P07947); details: Compound concentration 1000.0 nM
[20] = target: Serine/threonine-protein kinase mTOR (Homo sapiens) (UniProt P42345); details: Compound concentration 1000.0 nM
[21] = target: Ephrin type-A receptor 8 (Homo sapiens) (UniProt P29322); details: Compound concentration 1000.0 nM
[22] = target: Ephrin type-A receptor 1 (Homo sapiens) (UniProt P21709); details: Compound concentration 1000.0 nM
[23] = target: Cyclin-dependent kinase-like 3 (Homo sapiens) (UniProt Q8IVW4); details: Compound concentration 1000.0 nM
Chain of Cyclin-dependent kinase-like 3 (Homo sapiens) (Q8IVW4 whole entry, looked up): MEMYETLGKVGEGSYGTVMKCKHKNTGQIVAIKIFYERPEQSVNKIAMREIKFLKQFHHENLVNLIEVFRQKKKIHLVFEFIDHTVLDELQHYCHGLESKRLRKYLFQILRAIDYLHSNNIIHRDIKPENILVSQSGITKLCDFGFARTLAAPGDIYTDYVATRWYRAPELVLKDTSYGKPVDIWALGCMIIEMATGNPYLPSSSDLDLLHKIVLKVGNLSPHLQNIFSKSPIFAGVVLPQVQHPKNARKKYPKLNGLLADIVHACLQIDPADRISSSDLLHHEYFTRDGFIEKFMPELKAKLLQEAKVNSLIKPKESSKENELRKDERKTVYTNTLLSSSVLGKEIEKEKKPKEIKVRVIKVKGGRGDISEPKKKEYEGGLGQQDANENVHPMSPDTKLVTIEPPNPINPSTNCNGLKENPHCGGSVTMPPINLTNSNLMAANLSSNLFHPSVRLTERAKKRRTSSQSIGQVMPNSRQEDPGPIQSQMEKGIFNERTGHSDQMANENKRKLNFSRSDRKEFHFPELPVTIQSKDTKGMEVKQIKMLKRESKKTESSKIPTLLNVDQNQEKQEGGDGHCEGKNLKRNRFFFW

[24] = target: Cyclin-dependent kinase 11B (Homo sapiens) (UniProt P21127); details: Compound concentration 1000.0 nM
[25] = target: Transient receptor potential cation channel subfamily M member 6 (Homo sapiens) (UniProt Q9BX84); details: Compound concentration 1000.0 nM
Chain of Transient receptor potential cation channel subfamily M member 6 (Homo sapiens) (Q9BX84 whole entry): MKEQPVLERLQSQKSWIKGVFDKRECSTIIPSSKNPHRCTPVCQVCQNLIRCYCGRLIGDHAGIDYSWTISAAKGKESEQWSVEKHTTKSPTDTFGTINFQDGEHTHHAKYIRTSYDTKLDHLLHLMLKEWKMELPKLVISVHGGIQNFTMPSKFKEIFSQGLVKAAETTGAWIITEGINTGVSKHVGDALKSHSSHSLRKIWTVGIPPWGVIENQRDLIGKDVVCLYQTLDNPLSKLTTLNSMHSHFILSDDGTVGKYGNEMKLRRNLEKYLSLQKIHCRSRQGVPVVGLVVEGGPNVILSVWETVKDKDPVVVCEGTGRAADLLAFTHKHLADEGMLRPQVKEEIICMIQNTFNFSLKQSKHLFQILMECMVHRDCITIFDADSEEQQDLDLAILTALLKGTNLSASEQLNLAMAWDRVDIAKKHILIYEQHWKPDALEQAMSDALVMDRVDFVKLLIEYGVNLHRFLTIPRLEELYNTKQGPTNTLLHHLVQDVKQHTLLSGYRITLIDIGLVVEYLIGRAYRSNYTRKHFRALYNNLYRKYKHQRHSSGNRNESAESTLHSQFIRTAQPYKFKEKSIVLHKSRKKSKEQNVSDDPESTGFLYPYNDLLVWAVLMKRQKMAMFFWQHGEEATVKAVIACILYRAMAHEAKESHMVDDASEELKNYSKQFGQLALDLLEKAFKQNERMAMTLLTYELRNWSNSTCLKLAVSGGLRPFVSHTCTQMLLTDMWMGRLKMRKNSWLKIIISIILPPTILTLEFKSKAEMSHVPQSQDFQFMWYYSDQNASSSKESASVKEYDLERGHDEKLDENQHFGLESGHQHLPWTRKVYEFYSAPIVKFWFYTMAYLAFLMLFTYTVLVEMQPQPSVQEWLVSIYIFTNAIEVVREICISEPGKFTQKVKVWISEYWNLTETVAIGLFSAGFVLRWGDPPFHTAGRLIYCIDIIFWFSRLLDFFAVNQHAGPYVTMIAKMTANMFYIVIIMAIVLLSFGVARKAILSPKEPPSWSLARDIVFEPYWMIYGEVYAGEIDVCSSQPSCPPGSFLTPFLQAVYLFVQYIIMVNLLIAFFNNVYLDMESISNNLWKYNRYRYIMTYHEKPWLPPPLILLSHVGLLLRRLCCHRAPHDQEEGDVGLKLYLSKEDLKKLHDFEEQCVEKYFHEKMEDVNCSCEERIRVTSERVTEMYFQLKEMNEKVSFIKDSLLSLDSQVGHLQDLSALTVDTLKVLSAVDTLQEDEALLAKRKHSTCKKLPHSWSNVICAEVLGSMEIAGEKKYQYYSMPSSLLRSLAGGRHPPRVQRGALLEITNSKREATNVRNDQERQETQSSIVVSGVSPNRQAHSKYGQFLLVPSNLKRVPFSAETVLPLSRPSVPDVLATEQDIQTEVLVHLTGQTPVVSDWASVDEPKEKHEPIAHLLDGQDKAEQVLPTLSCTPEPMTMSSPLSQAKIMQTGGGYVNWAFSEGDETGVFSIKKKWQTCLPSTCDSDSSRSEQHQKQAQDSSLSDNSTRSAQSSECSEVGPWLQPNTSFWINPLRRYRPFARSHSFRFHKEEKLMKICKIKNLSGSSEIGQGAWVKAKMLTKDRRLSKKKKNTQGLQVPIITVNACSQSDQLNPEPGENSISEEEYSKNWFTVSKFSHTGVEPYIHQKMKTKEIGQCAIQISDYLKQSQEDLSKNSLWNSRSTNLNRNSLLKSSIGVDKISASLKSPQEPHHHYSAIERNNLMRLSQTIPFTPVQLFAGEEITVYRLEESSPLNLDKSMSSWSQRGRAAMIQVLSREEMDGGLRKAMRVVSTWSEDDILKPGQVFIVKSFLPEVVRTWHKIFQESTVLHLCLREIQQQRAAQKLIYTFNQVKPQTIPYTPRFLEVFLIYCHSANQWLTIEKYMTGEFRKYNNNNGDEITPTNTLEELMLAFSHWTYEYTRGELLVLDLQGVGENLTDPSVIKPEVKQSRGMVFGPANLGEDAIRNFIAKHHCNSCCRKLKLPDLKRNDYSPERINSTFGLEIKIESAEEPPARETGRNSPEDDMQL

[26] = target: Serine/threonine-protein kinase VRK2 (Homo sapiens) (UniProt Q86Y07); details: Compound concentration 1000.0 nM
[27] = target: Calcium/calmodulin-dependent protein kinase type 1D (Homo sapiens) (UniProt Q8IU85); details: Compound concentration 1000.0 nM
[28] = tested on: Proto-oncogene tyrosine-protein kinase receptor Ret (Homo sapiens), P07949 [V804M]; details: Compound concentration 1000.0 nM
[29] = target: Serine/threonine-protein kinase Sgk1 (Homo sapiens) (UniProt O00141); details: Compound concentration 1000.0 nM
[30] = target: Serine/threonine-protein kinase TAO3 (Homo sapiens) (UniProt Q9H2K8); details: Compound concentration 1000.0 nM
[31] = target: Sodium-dependent dopamine transporter (Homo sapiens, UniProt Q01959); details: Compound concentration 10.0 uM
[32] = target: Macrophage colony-stimulating factor 1 receptor (Homo sapiens) (UniProt P07333); details: Compound concentration 1000.0 nM
[33] = target: Serine/threonine-protein kinase N2 (Homo sapiens) (UniProt Q16513); details: Compound concentration 1000.0 nM
Chain of Serine/threonine-protein kinase N2 (Homo sapiens) (Q16513 whole entry, looked up): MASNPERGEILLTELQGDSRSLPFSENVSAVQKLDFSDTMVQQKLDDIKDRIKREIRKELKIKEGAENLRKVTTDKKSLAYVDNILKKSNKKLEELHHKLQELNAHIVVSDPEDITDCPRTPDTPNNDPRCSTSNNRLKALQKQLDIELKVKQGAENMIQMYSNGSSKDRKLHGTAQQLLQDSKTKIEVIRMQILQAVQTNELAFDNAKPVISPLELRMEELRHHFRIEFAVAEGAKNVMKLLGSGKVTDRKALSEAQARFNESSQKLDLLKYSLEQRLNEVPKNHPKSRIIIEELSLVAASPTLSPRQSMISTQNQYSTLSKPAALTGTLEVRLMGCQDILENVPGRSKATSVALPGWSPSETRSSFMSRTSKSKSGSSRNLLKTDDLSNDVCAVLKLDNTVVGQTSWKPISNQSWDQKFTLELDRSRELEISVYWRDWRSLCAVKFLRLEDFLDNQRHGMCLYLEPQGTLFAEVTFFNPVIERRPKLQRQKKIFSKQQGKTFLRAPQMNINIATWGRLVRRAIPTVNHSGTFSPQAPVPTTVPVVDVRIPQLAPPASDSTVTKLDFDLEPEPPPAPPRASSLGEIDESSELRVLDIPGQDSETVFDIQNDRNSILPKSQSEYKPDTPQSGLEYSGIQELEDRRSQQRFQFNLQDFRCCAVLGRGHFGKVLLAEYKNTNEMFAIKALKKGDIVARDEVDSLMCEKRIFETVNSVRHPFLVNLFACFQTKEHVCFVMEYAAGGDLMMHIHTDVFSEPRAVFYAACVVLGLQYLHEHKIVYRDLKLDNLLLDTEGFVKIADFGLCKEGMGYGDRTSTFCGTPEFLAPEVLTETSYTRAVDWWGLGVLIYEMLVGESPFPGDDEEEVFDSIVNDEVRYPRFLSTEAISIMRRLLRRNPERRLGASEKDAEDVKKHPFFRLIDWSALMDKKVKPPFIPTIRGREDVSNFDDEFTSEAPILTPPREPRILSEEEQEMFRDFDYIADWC

[34] = target: Citron Rho-interacting kinase (Homo sapiens) (UniProt O14578); details: Compound concentration 1000.0 nM
[35] = target: Serine/threonine-protein kinase MARK2 (Homo sapiens) (UniProt Q7KZI7); details: Compound concentration 1000.0 nM
[36] = tested on: Receptor-type tyrosine-protein kinase FLT3 (Homo sapiens), P36888 [D835H]; details: Compound concentration 1000.0 nM
[37] = target: Phosphatidylinositol 5-phosphate 4-kinase type-2 beta (Homo sapiens) (UniProt P78356); details: Compound concentration 1000.0 nM
[38] = tested on: Mast/stem cell growth factor receptor Kit (Homo sapiens), P10721 [L576P]; details: Compound concentration 1000.0 nM
[39] = target: RAC-gamma serine/threonine-protein kinase (Homo sapiens) (UniProt Q9Y243); details: Compound concentration 1000.0 nM
[40] = target: Serine/threonine-protein kinase DCLK2 (Homo sapiens) (UniProt Q8N568); details: Compound concentration 1000.0 nM
[41] = target: Calcium/calmodulin-dependent protein kinase kinase 1 (Homo sapiens) (UniProt Q8N5S9); details: Compound concentration 1000.0 nM
[42] = target: Uncharacterized serine/threonine-protein kinase SBK3 (Homo sapiens) (UniProt P0C264); details: Compound concentration 1000.0 nM
[43] = target: Testis-specific serine/threonine-protein kinase 3 (Homo sapiens) (UniProt Q96PN8); details: Compound concentration 1000.0 nM
[44] = target: Tyrosine-protein kinase ABL1 (Homo sapiens) (UniProt P00519); details: Compound concentration 1000.0 nM
[45] = target: Interleukin-1 receptor-associated kinase 3 (Homo sapiens) (UniProt Q9Y616); details: Compound concentration 1000.0 nM
Chain of Interleukin-1 receptor-associated kinase 3 (Homo sapiens) (Q9Y616 whole entry): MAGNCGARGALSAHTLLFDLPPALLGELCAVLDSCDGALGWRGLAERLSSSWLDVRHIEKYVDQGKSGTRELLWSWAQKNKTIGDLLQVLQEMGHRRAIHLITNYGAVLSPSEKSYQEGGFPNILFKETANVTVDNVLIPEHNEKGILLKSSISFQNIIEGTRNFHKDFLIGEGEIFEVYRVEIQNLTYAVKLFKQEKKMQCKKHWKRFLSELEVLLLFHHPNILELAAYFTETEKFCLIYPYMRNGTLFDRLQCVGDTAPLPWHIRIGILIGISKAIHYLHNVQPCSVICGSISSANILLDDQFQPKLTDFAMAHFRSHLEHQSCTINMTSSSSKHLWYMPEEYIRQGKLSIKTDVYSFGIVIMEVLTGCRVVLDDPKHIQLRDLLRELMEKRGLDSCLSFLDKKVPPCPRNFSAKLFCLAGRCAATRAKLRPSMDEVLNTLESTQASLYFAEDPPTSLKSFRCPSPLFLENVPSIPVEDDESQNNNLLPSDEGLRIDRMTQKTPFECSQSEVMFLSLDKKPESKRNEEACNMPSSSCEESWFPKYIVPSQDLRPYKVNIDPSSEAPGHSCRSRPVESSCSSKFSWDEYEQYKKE

For COc1cc(-c2cn([C@H]3CCc4c(F)cccc4N(CC(F)(F)F)C3=O)nn2)ccc1-n1cnc(C)c1, the residual activity [1] was 100%, the residual activity [2] was 93% and the residual activity [3] was 100%. It also gave an inhibition [4] of 35%, a residual activity [5] of 100% and a residual activity [6] of 99%. It also gave a residual activity [7] of 100%, a residual activity [8] of 100% and a residual activity [9] of 86%. The inhibition [10] was 23.3%, the residual activity [11] was 100% and the residual activity [12] was 98%. The residual activity [13] was 100%, the residual activity [14] was 100% and the residual activity [15] was 99%. The residual activity [16] was 100%, the residual activity [17] was 87% and the residual activity [18] was 90%. The residual activity [19] was 100%, the residual activity [20] was 100% and the residual activity [21] was 100%. For the same compound, the residual activity [22] was 100%, the residual activity [23] was 100% and the residual activity [24] was 95%. It also gave a residual activity [25] of 100%, a residual activity [26] of 100% and a residual activity [27] of 100%. It also gave a residual activity [28] of 88%, a residual activity [29] of 90% and a residual activity [30] of 100%. The inhibition [31] was 99.7%, the residual activity [32] was 100% and the residual activity [33] was 100%. The residual activity [34] was 100%, the residual activity [35] was 100% and the residual activity [36] was 98%. For the same compound, the residual activity [37] was 73%, the residual activity [38] was 100% and the residual activity [39] was 100%. It also gave a residual activity [40] of 100%, a residual activity [41] of 100% and a residual activity [42] of 100%. It also gave a residual activity [43] of 97%, a residual activity [44] of 94% and a residual activity [45] of 100%.

COc1cc(-c2cn([C@H]3CCc4ccccc4N(CC(F)(F)F)C3=O)nn2)ccc1-n1ccc(C)n1 was tested, and the residual activity [1] was 100%, the residual activity [2] was 100% and the residual activity [3] was 100%. It also gave an inhibition [4] of 22.2%, a residual activity [5] of 100% and a residual activity [6] of 100%. For the same compound, the residual activity [7] was 99%, the residual activity [8] was 84% and the residual activity [9] was 100%. It also gave an inhibition [10] of 20.9%, a residual activity [11] of 100% and a residual activity [12] of 100%. For the same compound, the residual activity [13] was 100%, the residual activity [14] was 94% and the residual activity [15] was 100%. For the same compound, the residual activity [16] was 79%, the residual activity [17] was 83% and the residual activity [18] was 100%. It also gave a residual activity [19] of 100%, a residual activity [20] of 100% and a residual activity [21] of 100%. The residual activity [22] was 89%, the residual activity [23] was 88% and the residual activity [24] was 100%. The residual activity [25] was 100%, the residual activity [26] was 100% and the residual activity [27] was 100%. For the same compound, the residual activity [28] was 100%, the residual activity [29] was 88% and the residual activity [30] was 72%. It also gave an inhibition [31] of 5.21%, a residual activity [32] of 93% and a residual activity [33] of 98%. It also gave a residual activity [34] of 100%, a residual activity [35] of 93% and a residual activity [36] of 100%. For the same compound, the residual activity [37] was 65%, the residual activity [38] was 62% and the residual activity [39] was 89%. It also gave a residual activity [40] of 92%, a residual activity [41] of 100% and a residual activity [42] of 92%. It also gave a residual activity [43] of 100%, a residual activity [44] of 78% and a residual activity [45] of 91%.
